The test system of assay [1] is NIH 3T3 Bmal1-dLuc and U2OS Bmal1-dLuc cells. In words: Real-time monitoring of circadian oscillation. It is filed as cell-based. Here is the method: NIH 3T3 Bmal1-dLuc and U2OS Bmal1-dLuc cells were used for real-time monitoring of circadian oscillation. While LumiCycle 32 (Actimetrics, USA) was used for recording the luminescence signals of NIH 3T3 Bmal1-dLuc cells, Synergy H1 (BioTek, USA) was used for recording the luminescence signals of U2OS Bmal1-dLuc cells. NIH 3T3 Bmal1-dLuc cells were plated in 35 mm cell culture dish at density of 45×10^4 cell/plate and incubated overnight at 37° C. under 5% CO2. The next day, cell medium was replaced with 0.1 μM Dexamethasone (Sigma D-8893) containing DMEM to synchronize the cells. After 2 hours incubation, cell media was exchanged with appropriate amount of CLK95 containing recording medium (10 g low glucose DMEM powder (Sigma D2902), 3.5 mg/mL D(+) glucose powder (Sigma G7021), 0.35 mg/mL sodium bicarbonate (Sigma S5761), 10 mM HEPES (Gibco 15630106), 5% FBS (Gibco, 16000044), 1% NEAA (Multicell 321-011-EL), 25 U/mL streptomycin-penicillin (Gibco 15140-122) which was supplemented with 0.1 mM Luciferin. Then plates were sealed with silicone grease to prevent evaporation and immediately placed in LumiCycle. This instrument continuously recorded the luminescence for each plate for 5-7 days with 10 minutes intervals at 37° C. LumiCycle Analysis software (Actimetrics) was used to analyse the changes in circadian rhythm. The data of the first day was excluded from analysis due to transient deviations caused after medium change.
For the experiments that were performed using Synergy-H1, U2OS Bmal1-dLuc cells were plated as triplicates into an opaque 96-well plate (5×10^4 cell/well). After synchronizing and treating the cells with CLK95, opaque 96-well plate was sealed with an optically clear film and placed under Synergy-H1 instrument. Luminescence signals were recorded for 5-7 days with 24 minutes intervals at 32° C.

Assay [2] concerns WT, Clock knockout and Bmal1 knockout MEF cells. In words: Circadian rhythm monitoring in WT, Clock KO and Bmal1 KO MEF cells transduced with Bmal1-dLuc. The class given is cell-based, mouse. As to conditions: WT vs Clock KO vs Bmal1 KO MEF cells. As to the method:
Wild type (WT), Clock knockout (KO), and Bmal1 KO mouse embryonic fibroblast (MEF) cells were transduced with Bmal1-dLuc lentiviral particles to enable us to monitor the effect of CLK95 on circadian oscillation. To this end, virus particles were produced as follow: HEK 293T cells were transfected with 10 μg pLV6-Bmal1-dluc, 9 μg pCMV-ΔR8.2dvpr packaging and lug pCMV-VSVG envelope vectors at ˜70-80% confluency. The plasmid cocktail was mixed with 20 μL PEI in 400 μL DMEM and incubated at room temperature for 10 minutes and cells were transfected. After 16 hours of incubation at 37° C. under 5% CO2, 3 mL fresh D10 medium were added to plates. 48 hours after transfection, cell medium was replaced with 8 mL fresh D10 medium. Lentiviral particles were harvested at 72 and 96 hours post transfection. Collected particles were filtered through 0.45 μM syringe filter and aliquoted (750 μL) for storage at −80° C. for further use.
WT, Clock KO, and Bmal1 KO MEF cells were transduced with Bmal1-dluc lentiviral particles as follow: Cells were seeded in 35 mm cell culture plates at the density of 1×10^5 cell/plate. […] 72-hours post-transduction cells were synchronized with Dexamethasone (0.1 μM) and prepared for luminescence recording of the circadian oscillation as indicated at section 3.4

Assay [3] deals with CLOCK:BMAL1 interaction. In words: Co-immunoprecipitation (Co-IP) of CLOCK with FLAG-BMAL1. The class given is biochemical. As to the method:
To investigate the binding sites of the CLK95 on CLOCK and BMAL1, promising residues which were computationally determined to interact with small molecule were mutated via site-directed mutagenesis. […] These amino acid residues were introduced to Bmal1 and CLOCK genes by PCR based mutagenesis. FLAG-tagged pcDNA4a-Bmal1 and […] were used as template DNAs. Each PCR reaction consisted of 50 ng of template DNA, 0.2 μM primer pair, 0.2 mM dNTPs and 3 units of Pfu DNA polymerase. Then the PCR reaction was performed under these conditions: 5 minutes at 98° C. followed by 12 cycles of 1 minute at 98° C., 1 minute at 55° C. and 15 minutes at 72° C. The PCR reaction completed with a final extension step at 72° C. for 15 minutes. PCR products were analysed with 0.8% of agarose. Bands at the right size were further treated with 1 μL FastDigest Dpn I (Thermo Scientific, FD1704) for 1 hour at 37° C. to digest methylated-parental DNA. Subsequently, DH5a (a strain of E. coli) cells were transformed with the 7 μL PCR product. Standard heat-shock transformation protocol was used. Transformed cells were plated on Ampicillin (100 μg/mL) containing Luria-Bertani (LB) agar plates and incubated overnight at 37° C. Later, colonies formed on the LB ager plate were selected to culture in 5 mL LB broth containing Ampicillin (100 μg/mL). After overnight incubation at 37° C., cells were harvested and plasmid isolation was performed with Macherey Nagel's NucleoSpin Plasmid (NoLid), Mini kit. Isolated plasmids were then sent for Sanger sequencing (Macrogen) to confirm desired single-site mutation.
To assess the effect CLK95 on BMAL1-CLOCK interaction Co-IP was employed. HEK 293T cell were transfected with FLAG-tagged pcDNA4a-Bmal1 or pCMV-Sport6-CLOCK plasmids. The FLAG-tagged pcDNA4a-Bmal1-R126A and pCMV-Sport6-CLOCK-F80A-K220A mutants were used in this assay. […] The protein concentration of each lysate was determined with the Pierce™ 660 nm Protein assay (Thermo Scientific, 22660). […]

Where [4] appears, read: NIH3T3 Bmal1-dLuc (Lumicycle) and U2OS Bmal1-dLuc (Synergy H1) cells.

For `CC1(c2ccc3ccccc3c2)NC(=O)N(CC(=O)Nc2nc(-c3ccc4c(c3)CCC4)cs2)C1=O` (centres unmarked) [CLK95], the “effect on circadian rhythm” value in assay [1] (Bmal1-dLuc U2OS cells) is on record as “destroying the circadian rhythm”. In assay [1] (setting [4]), the “effect on circadian amplitude” value was “decreases the amplitude” and the “effect on circadian period” value is given as “increases the period”. Besides, the “effect of higher doses on endogenous clock” value in assay [1] (higher doses) is on record as “completely suppress the endogenous clock”. In addition, the “dependence of circadian phenotype on CLOCK and BMAL1” value in assay [2] is “effecting the circadian phenotype through CLOCK and BMAL1”. Also, the “stability of CLOCK-BMAL1” value in assay [3] is “increasing the stability of CLOCK-BMAL1”. In assay [3] (Co-IP, HEK 293T lysates), the “interaction between CLOCK and BMAL1” value is “increasing the interaction between CLOCK and BMAL1”. Besides, in assay [3] (R126A mutant Co-IP), the “residue needed for binding to CLOCK:BMAL1 complex” value is recorded as “Arg126 of BMAL1 is essential”.
